Assays:
[1] = test system: influenza virus A/Taiwan/1/86 (H1N1); assay: organism not typed; format: cell-based; conditions: MDCK, 72 h, CPE in MDCK cells, three days post-virus exposure, ATPlite
in vitro = conditions: dog, TOX MDCK CC50

SMILES: Cc1c(C(=O)N[C@@H]2CCC[C@H](Nc3nc(-c4c[nH]c5c(F)cc(F)cc45)ncc3F)C2)nnn1C [Compound 117]
- melting point: 202 °C
- IC50 [1]: 11 nM
- CC50 at 3 days (in vitro): 8700 nM

SMILES: Cn1cnc(C(=O)N[C@@H]2CCC[C@H](Nc3nc(-c4c[nH]c5c(F)cc(C(F)(F)F)cc45)ncc3F)C2)c1 (racemic) [Compound 264]
- melting point: 266.5 °C
- IC50 [1]: 19 nM
- CC50 at 3 days (in vitro): 3800 nM

SMILES: O=C(N[C@@H]1CCC[C@H](Nc2nc(-c3c[nH]c4c(F)cc(F)cc34)ncc2F)C1)c1c[nH]nn1 [Compound 111]
- melting point: 265 °C
- IC50 [1]: 0.6 nM
- CC50 at 3 days (in vitro): 9000 nM

SMILES: Cn1cc(Br)nc1C(=O)N[C@@H]1CCC[C@H](Nc2nc(-c3c[nH]c4c(F)cc(F)cc34)ncc2F)C1 [Compound 128]
- melting point: 176 °C
- IC50 [1]: 10 nM
- CC50 at 3 days (in vitro): 5900 nM

SMILES: Cc1cc(F)c2[nH]cc(-c3nc(N[C@@H]4CCC[C@@H](NC(=O)c5nc(C)oc5C)C4)c(F)cc3C#N)c2c1 (racemic) [Compound 200]
- melting point: > 250 °C
- IC50 [1]: 160 nM
- CC50 at 3 days (in vitro): > 25000 nM

SMILES: Cc1nc(C(=O)N[C@@H]2CCC[C@H](Nc3nc(-c4c[nH]c5c(F)cc(F)cc45)ncc3F)C2)no1 [Compound 118]
- melting point: 233 °C
- IC50 [1]: 43 nM
- CC50 at 3 days (in vitro): > 25000 nM

SMILES: Cc1cnc(C(=O)N[C@@H]2CCC[C@H](Nc3nc(-c4c[nH]c5c(F)cc(Cl)cc45)ncc3F)C2)cn1 (relative stereo) [Compound 11, N-((1R*,3S*)-3-((2-(5-chloro-7-fluoro-1H-indol-3-yl)-5-fluoropyrimidin-4-yl)amino)cyclohexyl)-5-methylpyrazine-2-carboxamide]
- melting point: 251.5 °C
- IC50 [1]: 40 nM
- CC50 at 3 days (in vitro): 9000 nM

SMILES: Cc1[nH]nnc1C(=O)N[C@@H]1CCC[C@H](Nc2nc(-c3c[nH]c4c(F)cc(F)cc34)ncc2F)C1 [Compound 141]
- melting point: 256.6 °C
- IC50 [1]: 2 nM
- CC50 at 3 days (in vitro): 8400 nM

SMILES: Cn1nncc1C(=O)N[C@@H]1CCC[C@H](Nc2nc(-c3c[nH]c4c(F)cc(F)cc34)ncc2F)C1 [Compound 119]
- melting point: 285 °C
- IC50 [1]: 5 nM
- CC50 at 3 days (in vitro): > 50000 nM

SMILES: CN(C)c1ccnc(C(=O)N[C@@H]2CCC[C@H](Nc3nc(-c4c[nH]c5c(F)cc(F)cc45)ncc3F)C2)c1 [Compound 121]
- melting point: 282.8 °C
- IC50 [1]: 6 nM
- CC50 at 3 days (in vitro): 15700 nM

SMILES: CC1(C(CC(N)=O)Nc2nc(-c3c[nH]c4c(F)cc(F)cc34)c(C#N)cc2F)CCCC1 (stereo not drawn) [Compound 246]
- melting point: 270.1 °C
- IC50 [1]: 610 nM
- CC50 at 3 days (in vitro): 6900 nM

SMILES: Cn1cc(Br)nc1C(=O)N[C@@H]1CCC[C@H](Nc2nc(-c3c[nH]c4c(F)cc(Cl)cc34)ncc2F)C1 [Compound 57]
- melting point: 214.9 °C
- IC50 [1]: 10 nM
- CC50 at 3 days (in vitro): 5000 nM

SMILES: O=C(N[C@@H]1CCC[C@H](Nc2nc(-c3c[nH]c4c(F)cc(F)cc34)ncc2F)C1)c1cc[nH]n1 [Compound 126]
- melting point: > 300 °C
- IC50 [1]: 2 nM
- CC50 at 3 days (in vitro): 10000 nM

SMILES: O=C(N[C@@H]1CCC[C@H](Nc2nc(-c3c[nH]c4c(F)cc(F)cc34)ncc2F)C1)c1ncc[nH]1 [Compound 127]
- melting point: > 300 °C
- IC50 [1]: 1 nM
- CC50 at 3 days (in vitro): > 100000 nM

SMILES: Cc1cc(F)c2[nH]cc(-c3ncc(F)c(N[C@H](CC(=O)O)C(C)(C)C)n3)c2c1 [Compound 168]
- melting point: 132 °C
- IC50 [1]: > 25000 nM
- CC50 at 3 days (in vitro): 10300 nM

SMILES: O=C(N[C@@H]1CCC[C@H](Nc2nc(-c3c[nH]c4c(F)cc(Cl)cc34)ncc2F)C1)c1ccsc1 [Compound 37]
- melting point: > 300 °C
- IC50 [1]: 1 nM
- CC50 at 3 days (in vitro): 2400 nM

SMILES: Cn1nnc(C(=O)N[C@@H]2CCC[C@H](Nc3nc(-c4c[nH]c5c(F)cc(Cl)cc45)ncc3F)C2)n1 [Compound 74]
- melting point: 259.7 °C
- IC50 [1]: 19 nM
- CC50 at 3 days (in vitro): > 25000 nM

SMILES: O=C(N[C@@H]1CCC[C@H](Nc2nc(-c3c[nH]c4c(F)cc(F)cc34)ncc2F)C1)c1cc(Cl)ccn1 [Compound 99]
- melting point: 86 °C
- IC50 [1]: 12 nM
- CC50 at 3 days (in vitro): 10200 nM

SMILES: Nc1cccc(C(=O)N[C@@H]2CCC[C@H](Nc3nc(-c4c[nH]c5c(F)cc(F)cc45)ncc3F)C2)n1 [Compound 106]
- melting point: 190 °C
- IC50 [1]: 5 nM
- CC50 at 3 days (in vitro): 10300 nM

SMILES: Cn1cnc(C(=O)N[C@@H]2CCC[C@H](Nc3nc(-c4c[nH]c5c(F)cc(F)cc45)ncc3F)C2)n1 [Compound 134]
- melting point: 183.2 °C
- IC50 [1]: 14 nM
- CC50 at 3 days (in vitro): 10300 nM

SMILES: Cn1ncc(C(=O)N[C@@H]2CCC[C@H](Nc3nc(-c4c[nH]c5c(F)cc(F)cc45)ncc3F)C2)c1N [Compound 156]
- melting point: 248.7 °C
- IC50 [1]: 0.8 nM
- CC50 at 3 days (in vitro): 8500 nM

SMILES: O=C(N[C@@H]1CCC[C@H](Nc2nc(-c3c[nH]c4c(F)cc(Cl)cc34)ncc2F)C1)c1ncc(F)cc1F [Compound 55]
- melting point: > 300 °C
- IC50 [1]: 25 nM
- CC50 at 3 days (in vitro): 6600 nM
